{"source": "patent US20240425501A1", "about": "“NOVEL BICYCLIC HETEROARYL DERIVATIVES AS SOS1:KRAS PROTEINPROTEIN INTERACTION INHIBITORS” (SATYARX PHARMA INNOVATIONS PVT LTD, priority 2021, published 2024)"}
{"biological_target": "T1, hSOS1 enzyme / KRAS (G12C), GST-Tag, GDP-bound protein (Homo sapiens, UniProt Q07889)", "T1 sequence (Q07889 564-1049 limits assumed)": "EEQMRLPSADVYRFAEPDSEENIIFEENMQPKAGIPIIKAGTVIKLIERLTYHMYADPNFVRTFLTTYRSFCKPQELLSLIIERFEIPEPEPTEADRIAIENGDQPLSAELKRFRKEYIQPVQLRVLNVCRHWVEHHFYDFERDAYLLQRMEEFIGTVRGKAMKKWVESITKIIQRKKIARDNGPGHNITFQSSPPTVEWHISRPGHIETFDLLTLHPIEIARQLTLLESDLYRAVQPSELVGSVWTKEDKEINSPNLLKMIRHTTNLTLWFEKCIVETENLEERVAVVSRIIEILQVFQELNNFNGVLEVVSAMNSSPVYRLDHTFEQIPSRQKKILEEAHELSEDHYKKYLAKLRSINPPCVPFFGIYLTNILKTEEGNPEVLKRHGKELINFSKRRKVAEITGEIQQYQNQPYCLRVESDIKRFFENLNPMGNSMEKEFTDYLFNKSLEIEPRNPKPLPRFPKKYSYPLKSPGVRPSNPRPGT", "assay": "SOS1-mediated KRAS guanine nucleotide exchange (GEF) assay, HTRF (\"On Assay\")", "format": "biochemical", "details": "1 μM compound", "procedure": "Biochemical Assay: Measurement of SOS1-Mediated KRAS Guanine Nucleotide Exchange (GEF) Assay\nThis assay quantifies the HTRF-based SOS1 mediated guanine nucleotide exchange assay detecting GTP binding to KRAS (G12C), GST-Tag, GDP-bound protein. This is also referred as “On Assay”.The assay buffer composition is as follows: 10 mM HEPES pH-7, 150 mM NaCl, 5 mM MgCl2, 1 mM DTT, 0.05% BSA, 0.0025% IGEPAL CA-630 and MilliQ water. 0.5 μl of compounds diluted in assay buffer were dispensed into the respective wells of 384 black well test plate. 4.75 μl of KRAS working solution containing 100 nM KRAS (G12C), GST-Tag, GDP-bound protein GDP-loaded (Reaction biology) and 2 nM Anti GST-Tb cryptate (FRET donor, Cisbio) was added in assay buffer. The components were incubated for 10 min at 25° C.\n4.75 μl of hSOS1 working solution containing 20 nM hSOS1 enzyme and 200 nM EDA-GTP-DY-647P (FRET acceptor, synthesized by Jena Bioscience (Germany), supplied as a 1 mM solution) was further added in assay buffer. 4.75 μl of inhibitor control having only 200 nM EDA-GTP-DY-647P1 component without hSOS1 working solution was added in the negative control well. The plate was short spun for few seconds and incubated for 10 min. HTRF was measured using Perkin Elmer-Nivo 5F multimode plate reader.\nHTRF settings: EXCITATION FILTER—320/75 nm, EMISSION FILTER (1) —615/8 nm, EMISSION FILTER (2)—665/8 nm", "units": {"inhibition at 1 µM": "%"}}
{"smiles": "C[C@@H](Nc1nc(OCCO)nc2cnc(N3CCCC3)cc12)c1cc(N)cc(C(F)(F)F)c1", "note": "[Example 11, (R)-2-((4-((1-(3-amino-5-(trifluoromethyl)phenyl)ethyl)amino)-6-(pyrrolidin-1-yl)pyrido[3,4-d]pyrimidin-2-yl)oxy)ethan-1-ol]", "inhibition at 1 µM": "≥ 50"}
{"smiles": "CNc1nc(N[C@H](C)c2cc(N)cc(C(F)(F)F)c2)c2cc(N3CCOCC3)ccc2n1", "note": "[Example 74, (R)—N4-(1-(3-amino-5-(trifluoromethyl)phenyl)ethyl)-N2-methyl-6-morpholinoquinazoline-2,4-diamine]", "inhibition at 1 µM": "≥ 50"}
{"smiles": "CC(C)N1CCN(c2cc3c(N[C@H](C)c4cc(N)cc(C(F)(F)F)c4)nc(N(C)C)nc3cn2)CC1", "note": "[Example 50, (R)—N4-(1-(3-amino-5-(trifluoromethyl)phenyl)ethyl)-6-(4-isopropylpiperazin-1-yl)-N2,N2-dimethylpyrido[3,4-d]pyrimidine-2,4-diamine]", "inhibition at 1 µM": "≥ 50"}
{"smiles": "C[C@@H](Nc1nc(Cl)nc2ncc(N3CCCCC3)cc12)c1cc(N)cc(C(F)(F)F)c1", "note": "[Example 83, (R)—N-(1-(3-amino-5-(trifluoromethyl)phenyl)ethyl)-2-chloro-6-(piperidin-1-yl)pyrido[2,3-d]pyrimidin-4-amine]", "inhibition at 1 µM": "≥ 50"}
{"smiles": "CC(C)Nc1cc2c(N[C@H](C)c3cc(N)cc(C(F)(F)F)c3)nc(N3CCC3)nc2cn1", "note": "[Example 54, (R)—N4-(1-(3-amino-5-(trifluoromethyl)phenyl)ethyl)-2-(azetidin-1-yl)-N6-isopropylpyrido[3,4-d]pyrimidine-4,6-diamine]", "inhibition at 1 µM": "≥ 50"}
{"smiles": "C[C@@H](Nc1nc(N2CCC2)nc2cnc(N(C)C)cc12)c1cc(N)cc(C(F)(F)F)c1", "note": "[Example 53, (R)—N4-(1-(3-amino-5-(trifluoromethyl)phenyl)ethyl)-2-(azetidin-1-yl)-N6,N6-dimethylpyrido[3,4-d]pyrimidine-4,6-diamine]", "inhibition at 1 µM": "≥ 50"}
{"smiles": "CCC(=O)Nc1nc(N[C@H](C)c2cc(N)cc(C(F)(F)F)c2)c2cc(N3CCCC3)ncc2n1", "note": "[Example 75, (R)—N-(4-((1-(3-amino-5-(trifluoromethyl)phenyl)ethyl)amino)-6-(pyrrolidin-1-yl)pyrido[3,4-d]pyrimidin-2-yl)propionamide]", "inhibition at 1 µM": "< 50"}
{"smiles": "COCCNc1nc(N[C@H](C)c2cc(N)cc(C(F)(F)F)c2)c2cc(N3CCOCC3)ncc2n1", "note": "[Example 36, (R)—N4-(1-(3-amino-5-(trifluoromethyl)phenyl)ethyl)-N2-(2-methoxyethyl)-6-morpholinopyrido[3,4-d]pyrimidine-2,4-diamine]", "inhibition at 1 µM": "≥ 50"}
{"smiles": "CCN1CCN(c2cc3c(N[C@H](C)c4cc(N)cc(C(F)(F)F)c4)nc(Cl)nc3cn2)CC1", "note": "[Example 24, (R)—N-(1-(3-amino-5-(trifluoromethyl)phenyl)ethyl)-2-chloro-6-(4-ethylpiperazin-1-yl)pyrido[3,4-d]pyrimidin-4-amine]", "inhibition at 1 µM": "≥ 50"}
{"smiles": "COCCNc1nc(N[C@H](C)c2cc(N)cc(C(F)(F)F)c2)c2cc(N3CCCC3)ncc2n1", "note": "[Example 14, (R)—N4-(1-(3-amino-5-(trifluoromethyl)phenyl)ethyl)-N2-(2-methoxyethyl)-6-(pyrrolidin-1-yl)pyrido[3,4-d]pyrimidine-2,4-diamine]", "inhibition at 1 µM": "≥ 50"}
{"smiles": "C[C@@H](Nc1nc(Cl)nc2cnc(N3CCN(C)CC3)cc12)c1cccc(C(F)F)c1F", "note": "[Example 61, (R)-2-chloro-N-(1-(3-(difluoromethyl)-2-fluorophenyl)ethyl)-6-(4-methylpiperazin-1-yl)pyrido[3,4-d]pyrimidin-4-amine]", "inhibition at 1 µM": "≥ 50"}
{"smiles": "CNc1cc2c(N[C@H](C)c3cc(N)cc(C(F)(F)F)c3)nc(N3CCC3)nc2cn1", "note": "[Example 56, (R)—N4-(1-(3-amino-5-(trifluoromethyl)phenyl)ethyl)-2-(azetidin-1-yl)-N6-methylpyrido[3,4-d]pyrimidine-4,6-diamine]", "inhibition at 1 µM": "≥ 50"}
{"smiles": "C[C@@H](Nc1nc(Cl)nc2cnc(N3CCC(O)CC3)cc12)c1cc(N)cc(C(F)(F)F)c1", "note": "[Example 29, (R)-1-(4-((1-(3-amino-5-(trifluoromethyl)phenyl)ethyl)amino)-2-chloropyrido[3,4-d]pyrimidin-6-yl)piperidin-4-ol]", "inhibition at 1 µM": "≥ 50"}
{"smiles": "COC1CCN(c2cc3c(N[C@H](C)c4cc(N)cc(C(F)(F)F)c4)nc(N4CCC4)nc3cn2)CC1", "note": "[Example 40, (R)—N-(1-(3-amino-5-(trifluoromethyl)phenyl)ethyl)-2-(azetidin-1-yl)-6-(4-methoxypiperidin-1-yl)pyrido[3,4-d]pyrimidin-4-amine]", "inhibition at 1 µM": "≥ 50"}
{"smiles": "CCN1CCN(c2cc3c(N[C@H](C)c4cc(N)cc(C(F)(F)F)c4)cnnc3cn2)CC1", "note": "[Example 85, (R)—N-(1-(3-amino-5-(trifluoromethyl)phenyl)ethyl)-6-(4-ethylpiperazin-1-yl)pyrido[3,4-c]pyridazin-4-amine]", "inhibition at 1 µM": "≥ 50"}
{"smiles": "CCN1CCN(c2cnc3c(C)nnc(N[C@H](C)c4cc(N)cc(C(F)(F)F)c4)c3c2)CC1", "note": "[Example 86, (R)—N-(1-(3-amino-5-(trifluoromethyl)phenyl)ethyl)-3-(4-ethylpiperazin-1-yl)-8-methylpyrido[2,3-d]pyridazin-5-amine]", "inhibition at 1 µM": "≥ 50"}
{"smiles": "C[C@@H](Nc1nc(Cl)cc2ncc(N3CCOCC3)cc12)c1cc(N)cc(C(F)(F)F)c1", "note": "[Example 89, (R)—N-(1-(3-amino-5-(trifluoromethyl)phenyl)ethyl)-7-chloro-3-morpholino-1,6-naphthyridin-5-amine]", "inhibition at 1 µM": "≥ 50"}
{"smiles": "C[C@@H](Nc1nc(N2CCOCC2)nc2cnc(N3CCCC3)cc12)c1cc(N)cc(C(F)(F)F)c1", "note": "[Example 5, (R)—N-(1-(3-amino-5-(trifluoromethyl)phenyl)ethyl)-2-morpholino-6-(pyrrolidin-1-yl)pyrido[3,4-d]pyrimidin-4-amine]", "inhibition at 1 µM": "< 50"}
{"smiles": "CCN1CCN(c2cc3c(N[C@H](C)c4cc(N)cc(C(F)(F)F)c4)nc(Cl)nc3cc2OC)CC1", "note": "[Example 72, (R)—N-(1-(3-amino-5-(trifluoromethyl)phenyl)ethyl)-2-chloro-6-(4-ethylpiperazin-1-yl)-7-methoxyquinazolin-4-amine]", "inhibition at 1 µM": "≥ 50"}
{"smiles": "CCN1CCN(c2cc3c(N[C@H](C)c4cc(N)cc(C(F)(F)F)c4)nc(N4CCC4)nc3cn2)CC1", "note": "[Example 48, (R)—N-(1-(3-amino-5-(trifluoromethyl)phenyl)ethyl)-2-(azetidin-1-yl)-6-(4-ethylpiperazin-1-yl)pyrido[3,4-d]pyrimidin-4-amine]", "inhibition at 1 µM": "≥ 50"}
{"smiles": "CCN1CCN(c2cc3c(N[C@H](C)c4cc(N)cc(C(F)(F)F)c4)nc(N(C)C)nc3cn2)CC1", "note": "[Example 49, (R)—N4-(1-(3-amino-5-(trifluoromethyl)phenyl)ethyl)-6-(4-ethylpiperazin-1-yl)-N2,N2-dimethylpyrido[3,4-d]pyrimidine-2,4-diamine]", "inhibition at 1 µM": "≥ 50"}
{"smiles": "COCCN(C)c1nc(N[C@H](C)c2cc(N)cc(C(F)(F)F)c2)c2cc(N3CCCC3)ncc2n1", "note": "[Example 15, (R)—N4-(1-(3-amino-5-(trifluoromethyl)phenyl)ethyl)-N2-(2-methoxyethyl)-N2-methyl-6-(pyrrolidin-1-yl)pyrido[3,4-d]pyrimidine-2,4-diamine]", "inhibition at 1 µM": "≥ 50"}
{"smiles": "C[C@@H](Nc1nc(NC(=O)CN)nc2cnc(N3CCCC3)cc12)c1cc(N)cc(C(F)(F)F)c1", "note": "[Example 77, (R)-2-amino-N-(4-((1-(3-amino-5-(trifluoromethyl)phenyl)ethyl)amino)-6-(pyrrolidin-1-yl)pyrido[3,4-d]pyrimidin-2-yl)acetamide hydro chloride]", "inhibition at 1 µM": "≥ 50"}
